Laboratory results taken from paper PMC8079033, “Design, synthesis, anticancer evaluation, and molecular modelling studies of novel tolmetin derivatives as potential VEGFR-2 inhibitors and apoptosis inducers” (Journal of Enzyme Inhibition and Medicinal Chemistry, 2021).

Tests used:
OVCAR-5 = experiment: NCI 60-cell line one-dose antiproliferative screen (SRB); format: cell-based; conditions: Homo sapiens, read-out: growth inhibition % (GI%)
Protocol: (§1) Anticancer activity screening of the newly synthesised compounds was measured in vitro utilising 60 different human tumour cell lines provided by US National Cancer Institute according to previously reported standard procedure[41–43] as follows: Cells are inoculated into 96-well microtiter plates in 100 ml. After cell inoculation, the microtiter plates are incubated at 37 °C, 5% CO2, 95% air, and 100% relative humidity for 24 h prior to addition of experimental compounds. After 24 h, two plates of each cell line are fixed in situ with TCA, to represent a measurement of the cell population for each cell line at the time of compound addition (Tz). Experimental compounds are solubilised in dimethyl sulfoxide at 400-fold the desired final maximum test concentration and stored frozen prior to use. At the time of compound addition, an aliquot of frozen concentrate is thawed and diluted to twice the desired final maximum test concentration with a complete medium containing […] gentamicin. Aliquots of […] of the compounds dilutions are added to the appropriate microtiter wells already containing 100 ml of medium, resulting in the required final compound concentration. Following compound addition, the plates are incubated for an additional 48 h at 37 °C, 5% CO2, 95% air, and 100% relative humidity. For adherent cells, the assay is terminated by the addition of cold trichloroacetic acid (TCA). Cells are fixed in situ by the gentle addition of 50 ml of cold 50% (w/v) TCA (final concentration, 10% TCA) and incubated for […] at 4 °C. The supernatant is discarded, and the plates are washed five times with tap water and air-dried. Sulforhodamine B (SRB) solution (100 ml) at 0.4% (w/v) in 1% acetic acid is added to each well, and plates are incubated for 10 min at room temperature. After staining, the unbound dye is removed by washing five times with 1% acetic acid and the plates are air-dried. The bound stain is subsequently solubilised with a 10 mM trizma base, and the absorbance is read on an automated plate reader at a wavelength of 515 nm. For suspension cells, the methodology is the same except that the assay is terminated by fixing settled cells at the bottom of the wells by gently adding 50 ml of 80% TCA (final concentration, 16% TCA). Using the absorbance measurements [time zero, (Tz), control growth, (C), and test growth in the presence of compound (Ti)], the percentage growth is calculated for each compound. The One-dose data are reported as a mean graph of the percent growth of treated cells. The reported number is growth relative to the no-compound control, and relative to the time zero number of cells. This allows the detection of both growth inhibition and lethality.
(§2) Fifteen newly synthesised compounds were tested for their in vitro antiproliferative activity by the National Cancer Institute (NCI), Maryland, USA[50], under the Developmental Therapeutic Program (DTP)[41]^,[43]^,[51]^,[52]. The tested compounds were evaluated at a concentration of 10 µM on a panel of 60 tumour cell lines representing leukaemia and non-small cell lung, colon, CNS, melanoma, ovarian, renal, prostate, and breast cancers. The antiproliferative activity was presented by the NCI as percent growth of the treated cells and is presented in Table 1 as growth inhibition percentage (GI%) achieved by the tested compounds.

SF-539 = experiment: as above; format: cell-based; conditions: Homo sapiens, read-out: growth inhibition % (GI%)
Protocol: as §1, §2

UACC-257 = experiment: as above; format: cell-based; conditions: Homo sapiens, read-out: growth inhibition % (GI%)
Protocol: as §1, §2

OVCAR-4 = experiment: as above; format: cell-based; conditions: Homo sapiens, read-out: growth inhibition % (GI%)
Protocol: as §1, §2

HS 578 T = experiment: as above; format: cell-based; conditions: Homo sapiens, read-out: growth inhibition % (GI%)
Protocol: as §1, §2

SNB-19 = experiment: as above; format: cell-based; conditions: Homo sapiens, read-out: growth inhibition % (GI%)
Protocol: as §1, §2

EKVX = experiment: as above; format: cell-based; conditions: Homo sapiens, read-out: growth inhibition % (GI%)
Protocol: as §1, §2

PC-3 = experiment: as above; format: cell-based; conditions: Homo sapiens, read-out: growth inhibition % (GI%)
Protocol: as §1, §2

HCC-2998 = experiment: as above; format: cell-based; conditions: Homo sapiens, read-out: growth inhibition % (GI%)
Protocol: as §1, §2

HOP-62 = experiment: as above; format: cell-based; conditions: Homo sapiens, read-out: growth inhibition % (GI%)
Protocol: as §1, §2

SK-MEL-5 = experiment: as above; format: cell-based; conditions: Homo sapiens, read-out: growth inhibition % (GI%)
Protocol: as §1, §2

NCI-H522 = experiment: as above; format: cell-based; conditions: Homo sapiens, read-out: growth inhibition % (GI%)
Protocol: as §1, §2

NCI-H226 = experiment: as above; format: cell-based; conditions: Homo sapiens, read-out: growth inhibition % (GI%)
Protocol: as §1, §2

A549/ATCC = experiment: as above; format: cell-based; conditions: Homo sapiens, read-out: growth inhibition % (GI%)
Protocol: as §1, §2

LOX IMVI = experiment: as above; format: cell-based; conditions: Homo sapiens, read-out: growth inhibition % (GI%)
Protocol: as §1, §2

IGROV1 = experiment: as above; format: cell-based; conditions: Homo sapiens, IGROV-1, read-out: growth inhibition % (GI%)
Protocol: as §1, §2

U251 = experiment: as above; format: cell-based; conditions: Homo sapiens, U-251, read-out: growth inhibition % (GI%)
Protocol: as §1, §2

K-562 = experiment: as above; format: cell-based; conditions: Homo sapiens, K562, read-out: growth inhibition % (GI%)
Protocol: as §1, §2

SN 12 C = experiment: as above; format: cell-based; conditions: Homo sapiens, SN12C, read-out: growth inhibition % (GI%)
Protocol: as §1, §2

OVCAR-8 = experiment: as above; format: cell-based; conditions: Homo sapiens, read-out: growth inhibition % (GI%)
Protocol: as §1, §2

NCI-H23 = experiment: as above; format: cell-based; conditions: Homo sapiens, read-out: growth inhibition % (GI%)
Protocol: as §1, §2

SW-620 = experiment: as above; format: cell-based; conditions: Homo sapiens, read-out: growth inhibition % (GI%)
Protocol: as §1, §2

HCT-15 = experiment: as above; format: cell-based; conditions: Homo sapiens, read-out: growth inhibition % (GI%)
Protocol: as §1, §2

SNB-75 = experiment: as above; format: cell-based; conditions: Homo sapiens, read-out: growth inhibition % (GI%)
Protocol: as §1, §2

MCF7 = experiment: as above; format: cell-based; conditions: Homo sapiens, read-out: growth inhibition % (GI%)
Protocol: as §1, §2

BT-5 = experiment: as above; format: cell-based; conditions: Homo sapiens, read-out: growth inhibition % (GI%)
Protocol: as §1, §2

T-47D = experiment: as above; format: cell-based; conditions: Homo sapiens, T47D, read-out: growth inhibition % (GI%)
Protocol: as §1, §2

MOLT-4 = experiment: as above; format: cell-based; conditions: Homo sapiens, read-out: growth inhibition % (GI%)
Protocol: as §1, §2

CAKI-1 = experiment: as above; format: cell-based; conditions: Homo sapiens, read-out: growth inhibition % (GI%)
Protocol: as §1, §2

HCT-116 = experiment: as above; format: cell-based; conditions: Homo sapiens, read-out: growth inhibition % (GI%)
Protocol: as §1, §2

MDA-MB-231/ATCC = experiment: as above; format: cell-based; conditions: Homo sapiens, read-out: growth inhibition % (GI%)
Protocol: as §1, §2

UACC-62 = experiment: as above; format: cell-based; conditions: Homo sapiens, read-out: growth inhibition % (GI%)
Protocol: as §1, §2

HOP-92 = experiment: as above; format: cell-based; conditions: Homo sapiens, read-out: growth inhibition % (GI%)
Protocol: as §1, §2

SF-268 = experiment: as above; format: cell-based; conditions: Homo sapiens, read-out: growth inhibition % (GI%)
Protocol: as §1, §2

ACHN = experiment: as above; format: cell-based; conditions: Homo sapiens, read-out: growth inhibition % (GI%)
Protocol: as §1, §2

RPMI-8226 = experiment: as above; format: cell-based; conditions: Homo sapiens, read-out: growth inhibition % (GI%)
Protocol: as §1, §2

UO-31 = experiment: as above; format: cell-based; conditions: Homo sapiens, read-out: growth inhibition % (GI%)
Protocol: as §1, §2

A498 = experiment: as above; format: cell-based; conditions: Homo sapiens, read-out: growth inhibition % (GI%)
Protocol: as §1, §2

MDA-MB-468 = experiment: NCI 60-cell line one-dose antiproliferative screen (SRB); format: cell-based; conditions: Homo sapiens, read-out: growth inhibition % (GI%)
Protocol: as §1, §2

SF-295 = experiment: as above; format: cell-based; conditions: Homo sapiens, read-out: growth inhibition % (GI%)
Protocol: as §1, §2

MDA-MB-435 = experiment: as above; format: cell-based; conditions: Homo sapiens, read-out: growth inhibition % (GI%)
Protocol: as §1, §2

Row | SMILES | inhibition at 10 µM (OVCAR-5) | inhibition at 10 µM (SF-539) | inhibition at 10 µM (UACC-257) | inhibition at 10 µM (EKVX) | inhibition at 10 µM (PC-3) | inhibition at 10 µM (HCC-2998) | inhibition at 10 µM (HOP-62) | inhibition at 10 µM (SK-MEL-5) | inhibition at 10 µM (NCI-H522) | inhibition at 10 µM (NCI-H226) | inhibition at 10 µM (LOX IMVI) | inhibition at 10 µM (IGROV1) | inhibition at 10 µM (U251) | inhibition at 10 µM (SN 12 C) | inhibition at 10 µM (OVCAR-8) | inhibition at 10 µM (NCI-H23) | inhibition at 10 µM (SW-620) | inhibition at 10 µM (HCT-15) | inhibition at 10 µM (SNB-75) | inhibition at 10 µM (MCF7) | other results
1 | Cc1ccc(C(=O)c2ccc(CC(=O)NNC(=O)Nc3c(Cl)cccc3Cl)n2C)cc1 [Compound 8a, N-(2,6-Dichlorophenyl)-2–(2-(1-methyl-5–(4-methylbenzoyl)-1H-pyrrol-2-yl)acetyl) hydrazinecarboxamide] | < 10% | < 10% | < 10% | < 10% | 10.5% | < 10% | 11.4% | < 10% | 15.9% | < 10% | < 10% | 14% | 11.7% | < 10% | < 10% | < 10% | < 10% | < 10% | 28.1% | 10% | inhibition at 10 µM (OVCAR-4): 16%; inhibition at 10 µM (HS 578 T): < 10%; inhibition at 10 µM (SNB-19): 17.7%; inhibition at 10 µM (A549/ATCC): < 10%; inhibition at 10 µM (K-562): < 10%; inhibition at 10 µM (BT-5): < 10%; inhibition at 10 µM (T-47D): 18%; inhibition at 10 µM (MOLT-4): < 10%; inhibition at 10 µM (CAKI-1): 14.9%; inhibition at 10 µM (HCT-116): < 10%; inhibition at 10 µM (MDA-MB-231/ATCC): < 10%; inhibition at 10 µM (UACC-62): 11.1%; inhibition at 10 µM (HOP-92): < 10%; inhibition at 10 µM (SF-268): < 10%; inhibition at 10 µM (ACHN): < 10%; inhibition at 10 µM (RPMI-8226): < 10%; inhibition at 10 µM (UO-31): 31.1%; inhibition at 10 µM (A498): < 10%; melting point: 245 to 247 °C
2 | Cc1ccc(C(=O)c2ccc(CC(=O)NN=C3C(=O)Nc4ccccc43)n2C)cc1 [Compound 6a, 2–(1-Methyl-5–(4-methylbenzoyl)-1H-pyrrol-2-yl)-N′-(2-oxoindolin-3-ylidene) acetohydrazide] | < 10% | < 10% | < 10% | < 10% | < 10% | < 10% | < 10% | < 10% | < 10% | < 10% | < 10% | < 10% | < 10% | < 10% | < 10% | < 10% | < 10% | < 10% | 29.6% | < 10% | inhibition at 10 µM (MDA-MB-468): 10.5%; inhibition at 10 µM (CAKI-1): 12.3%; inhibition at 10 µM (SF-295): < 10%; inhibition at 10 µM (MDA-MB-231/ATCC): 11.4%; inhibition at 10 µM (UACC-62): < 10%; inhibition at 10 µM (HOP-92): 11.1%; inhibition at 10 µM (SF-268): < 10%; inhibition at 10 µM (ACHN): < 10%; inhibition at 10 µM (MDA-MB-435): < 10%; inhibition at 10 µM (UO-31): 25.7%; melting point: 193 to 195 °C
